According to US20220056037A1 (SPV THERAPEUTICS INC., priority 2018, published 2022):

What was measured:
CEXF HeLa = test: 2D cell proliferation assay (CellTiter-Blue); format: cell-based; details: Homo sapiens, 72 h; cell line CEXF HeLa; three days of treatment; read-out: IC (abs. IC50)
Procedure: (§1) Viability of the cells was analyzed by using the CellTiter-Blue® Cell Viability Assay (Promega), and was performed according to manufacturer's instructions. Briefly, cells were harvested from exponential phase cultures (Chapter 6.6), counted and plated in 96-well flat-bottom microtiter plates at a cell density of 4,000-60,000 cells/well in a volume of 140 μl per well. After a 24 hours recovery period, 10 μL cell culture medium (six control wells/plate) or culture medium with test compound were added (Chapter 6.2). The compounds were applied at five concentrations in full-log increments up to 100 μM in duplicate. Cultures were incubated at 37° C. and 5% CO2 in a humidified atmosphere for another three days. After three days of treatment, 20 μl/well CellTiter-Blue® reagent was added. Following incubation with CellTiter-Blue® reagent for up to four hours, fluorescence (FU) was measured by using the Enspire Multimode Plate Reader (excitation λ=570 nm, emission λ=600 nm). For calculations, the mean values of duplicate/sextuplicate (untreated control) data were used.
(§2) Drug effects were expressed in terms of the percentage of the fluorescence signal, obtained by comparison of the mean signal in the treated wells with the mean signal of the untreated controls (expressed by the test-versus-control value, T/C-value [%]):
(§3) IC values are reported as relative IC50 values and absolute IC50 and IC70 values. […] The absolute IC70 value gives the concentration of the test compound that achieves T/C=30%. The relative IC50 value is the concentration of test compound that gives a response half way between the top and bottom plateau of the sigmoidal concentration-response curve (inflection point of the curve). Calculation was done by 4parameter non-linear curve fit (Oncotest Data Warehouse Software).
(§4) If an IC50 or IC70 value could not be determined within the examined dose range (because a compound was either too active or lacked activity), the lowest or highest concentration studied was used for calculation of the geometric mean value.
(§5) The overall potency of a compound was determined by the geometric mean IC50/IC70 values of all individual IC50/IC70 values. In the heatmap representation of IC50 and IC70 values, the distribution of the IC50 or IC70 values obtained for a test compound in the individual cell lines is given in relation to the geometric mean […] or IC70 value, obtained over all PDX models tested. The individual IC values range from 1/32-fold geometric mean IC (corresponding to very potent compound activity or high tumor sensitivity) to 32-fold geometric mean IC (corresponding to lack of compound activity or tumor resistance). The heatmap presentation, therefore, represents an antiproliferative “fingerprint” profile of a test compound.

CXF Caco-2 = test: 2D cell proliferation assay (CellTiter-Blue); format: cell-based; details: Homo sapiens, 72 h; cell line CXF Caco-2; three days of treatment; read-out: IC (abs. IC50)
Procedure: as §1, §2, §3, §4, §5

PRXF LNCaP = test: 2D cell proliferation assay (CellTiter-Blue); format: cell-based; details: Homo sapiens, 72 h; cell line PRXF LNCaP; three days of treatment; read-out: IC (abs. IC50)
Procedure: as §1, §2, §3, §4, §5

PAXF MIA-Pa-Ca-2 = test: 2D cell proliferation assay (CellTiter-Blue); format: cell-based; details: Homo sapiens, MIA PaCa-2, 72 h; cell line PAXF MIA-Pa-Ca-2; three days of treatment; read-out: IC (abs. IC50)
Procedure: as §1, §2, §3, §4, §5

MAXFTN MDA-MB-231 (ER −) = test: 2D cell proliferation assay (CellTiter-Blue); format: cell-based; details: Homo sapiens, 72 h; cell line MAXFTN MDA-MB-231 (ER −); three days of treatment; read-out: IC (abs. IC50)
Procedure: as §1, §2, §3, §4, §5

LIXAH HLE = test: 2D cell proliferation assay (CellTiter-Blue); format: cell-based; details: 72 h; cell line LIXAH HLE; three days of treatment; read-out: IC (abs. IC50)
Procedure: as §1, §2, §3, §4, §5

LXFL NCI-H1299 = test: 2D cell proliferation assay (CellTiter-Blue); format: cell-based; details: Homo sapiens, 72 h; cell line LXFL NCI-H1299; three days of treatment; read-out: IC (abs. IC50)
Procedure: as §1, §2, §3, §4, §5

MAXFHER SK-BR-3 = test: 2D cell proliferation assay (CellTiter-Blue); format: cell-based; details: Homo sapiens, 72 h; cell line MAXFHER SK-BR-3; three days of treatment; read-out: IC (abs. IC50)
Procedure: as §1, §2, §3, §4, §5

CXF HCT-15 = test: 2D cell proliferation assay (CellTiter-Blue); format: cell-based; details: Homo sapiens, 72 h; cell line CXF HCT-15; three days of treatment; read-out: IC (abs. IC50)
Procedure: as §1, §2, §3, §4, §5

MAXFTN ZR-75-1 (ER +) = test: 2D cell proliferation assay (CellTiter-Blue); format: cell-based; details: Homo sapiens, 72 h; cell line MAXFTN ZR-75-1 (ER +); three days of treatment; read-out: IC (abs. IC50)
Procedure: as §1, §2, §3, §4, §5

LIXFH Hep G2 = test: 2D cell proliferation assay (CellTiter-Blue); format: cell-based; details: Homo sapiens, HepG2, 72 h; cell line LIXFH Hep G2; three days of treatment; read-out: IC (abs. IC50)
Procedure: as §1, §2, §3, §4, §5

MEXF MDA-MB-435 = test: 2D cell proliferation assay (CellTiter-Blue); format: cell-based; details: Homo sapiens, 72 h; cell line MEXF MDA-MB-435; three days of treatment; read-out: IC (abs. IC50)
Procedure: as §1, §2, §3, §4, §5

LEXFCM K-562 = test: 2D cell proliferation assay (CellTiter-Blue); format: cell-based; details: Homo sapiens, K562, 72 h; cell line LEXFCM K-562; three days of treatment; read-out: IC (abs. IC50)
Procedure: as §1, §2, §3, §4, §5

MEXF M14 = test: 2D cell proliferation assay (CellTiter-Blue); format: cell-based; details: 72 h; cell line MEXF M14; three days of treatment; read-out: IC (abs. IC50)
Procedure: as §1, §2, §3, §4, §5

LXFE Calu-1 = test: 2D cell proliferation assay (CellTiter-Blue); format: cell-based; details: Homo sapiens, 72 h; cell line LXFE Calu-1; three days of treatment; read-out: IC (abs. IC50)
Procedure: as §1, §2, §3, §4, §5

[1] = Nonclinical pharmacokinetic study, IV and oral, in rats
Procedure: Nonclinical pharmacokinetic (PK) parameters of lead CDK4/6/9 inhibitors were determined in an intravenous (IV) and oral study (p.o.) conducted in rats. Lead compounds were each administered as a single oral dose at 100 mg/kg or by IV bolus via the caudal vein at the dose of 30 mg/kg. Blood samples were collected at 0.25, 0.5, 1, 2, 4, 8, 12, and 24 hours post i.v. administration, and at 1, 2, 4, 8, 24 and 48 hours post oral administration. Plasma was processed for drug concentration analysis using a validated LCMS/MS method, and PK parameters were calculated by using WinNonlin.

all cell lines tested = test: 2D cell proliferation assay (CellTiter-Blue), geometric mean over the panel; format: cell-based; details: geometric mean of all individual IC50 values of Table 4; read-out: Geomean abs. IC50 value
Procedure: as §1, with “For calculations, the mean values of duplicate/sextuplicate (untreated control) data were used.” left out
as §4
The overall potency of a compound was determined by the geometric mean IC50/IC70 values of all individual IC50/IC70 values. […]

[2] = rats, oral administration, 100 mg/kg, N = 3

CN1CCN(c2ccc(Nc3ncc4cc(C(=O)N(C)C)n(C56CC(C5)C6)c4n3)cc2)CC1 [SPV113]
IC50 (CEXF HeLa): 329 nM | IC50 (CXF Caco-2): ≥ 100000 nM | IC50 (PRXF LNCaP): 116 nM | IC50 (PAXF MIA-Pa-Ca-2): 105 nM | IC50 (MAXFTN MDA-MB-231 (ER −)): 340 nM | IC50 (LIXAH HLE): 229 nM | IC50 (LXFL NCI-H1299): 1630 nM | IC50 (MAXFHER SK-BR-3): 2040 nM | IC50 (CXF HCT-15): 202 nM | IC50 (MAXFTN ZR-75-1 (ER +)): 12600 nM | IC50 (LIXFH Hep G2): 124 nM | IC50 (MEXF MDA-MB-435): 296 nM | IC50 (LEXFCM K-562): 1150 nM | IC50 (MEXF M14): 1010 nM | IC50 (LXFE Calu-1): 1560 nM | Cmax ([1]; rat, plasma, iv, 30 mg/kg): 6830 ng/mL | clearance ([1]; rat, plasma, iv, 30 mg/kg): 18.7 mL/min/kg | half-life ([1]; rat, plasma, iv, 30 mg/kg): 5.73 h | Cmax ([1]; rat, plasma, po, 100 mg/kg): 2520 ng/mL | MRT ([1]; rat, plasma, po, 100 mg/kg): 25.5 h | BIOAVAILABILITY F ([1]; rats, oral 100 mg/kg vs IV bolus 30 mg/kg): 33.3% | AUC [1, 2]: 33798 ng·h/mL | T1/2 [1, 2]: 6.0 h | IC50 (all cell lines tested): 391 nM
